Assay results from patent publication US12065438B2, “Substituted tricyclic compounds as indoleamine 2,3-dioxygenase inhibitors” (Merck Sharp & Dohme LLC, priority 2019, dated 2024).

biological target: IDO1 (Homo sapiens, UniProt P14902); assay: IDO1 Cellular Assay in HeLa Cells Stimulated with IFNγ; assay type: cell-based; design: endogenous in cells; host or cells: HeLa cells stimulated with IFNγ; details: HeLa cells stimulated with IFNγ 100 ng/mL, 300 uM L-tryptophan, about 48 hours, fluorescence readout; read-out: IDO1 HELA Cell Assay, IC50
Sequence (P14902 whole entry): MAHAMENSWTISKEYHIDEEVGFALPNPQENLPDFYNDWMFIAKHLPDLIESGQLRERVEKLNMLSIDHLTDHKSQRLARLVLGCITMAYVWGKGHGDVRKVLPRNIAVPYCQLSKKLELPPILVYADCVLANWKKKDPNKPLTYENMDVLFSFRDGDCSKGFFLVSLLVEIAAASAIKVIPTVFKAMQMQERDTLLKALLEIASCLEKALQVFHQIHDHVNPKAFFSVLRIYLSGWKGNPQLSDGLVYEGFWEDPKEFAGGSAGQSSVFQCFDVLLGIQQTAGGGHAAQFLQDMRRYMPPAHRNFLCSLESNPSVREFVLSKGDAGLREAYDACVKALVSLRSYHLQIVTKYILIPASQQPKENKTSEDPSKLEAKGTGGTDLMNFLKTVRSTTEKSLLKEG
Protocol: Biological Assays IDO1 Cellular Assay in HeLa Cells Stimulated with IFNγ HeLa cells were cultured in complete HeLa culture medium (90% EMEM, 10% heat-inactivated fetal bovine serum) and expanded to about 1×10^9 cells. The cells were then collected and frozen down at 1×10^7 cells/vial in 1 mL frozen medium (90% complete HeLa culture medium, 10% DMSO). Compounds to be tested were serially diluted in ten 3-fold steps in DMSO starting from 10 mM DMSO stocks in Echo low volume plate(s). Compound dilutions or DMSO alone were then dispensed from the dilution plate(s) into Greiner black 384-well assay plate(s) (catalog #781086, 50 nL/well) using an Echo 550 acoustic liquid handler (Labcyte). Frozen HeLa cells were thawed and transferred into HeLa assay medium (99% complete HeLa culture medium, 1% Pen/Strep) with 20 mL medium/vial of cells. The cells were spun down at 250 g in a table top centrifuge for 5 min and suspended in same volume of HeLa assay medium. The cells were then counted and adjusted to a density of 2×10^5 cells/mL in HeLa assay medium. Sterile L-tryptophan were added to the cells with final concentration of 300 uM L-tryptophan. A small aliquot (2 mL/plate) of HeLa cells were set aside and were not treated with IFNγ, to serve as the Max-E control. The rest of HeLa cells were added with sterile IFNγ (Cat #285-IF, R & D systems) with a final concentration of 100 ng/mL. HeLa cells with and without IFNγ were dispensed to the respective wells of 384-well assay plates containing the compounds. The plates were incubated for about 48 hours at a 37° C., 5% CO2 incubator. Afterwards, 12 μL of 0.5 M methyl isonipecotate in dimethyl sulfoxide were added into each well and the plates were sealed and incubated at 37° C. without CO2 overnight. The plates were centrifuged for 1 min at 200×g. The resulting fluorescence was measured in a Spectramax plate reader (Molecular Devices) with a 400 nm excitation filter and a 510 nm emission filter. The fluorescence intensity of each well was corrected for the background observed in wells with non-IFNγ-treated cells and was expressed as a fraction of the intensity observed in wells of IFNγ-treated cells and DMSO only. Potencies were calculated by […] least squares fit to the four parameter logistic IC50 equation.

Molecule | IC50 [nM]
Cc1nccc(N2C[C@H]3C[C@H]3c3nc([C@]4(NC(=O)c5ccc(F)cc5)C[C@@H]4C)ccc32)n1 [Example 46, 4-fluoro-N-((1S,2S)-2-methyl-1-((6aS,7aR)-5-(2-methyl-pyrimidin-4-yl)-6,6a,7,7a-tetra-hydro-5H-cyclopropa[c][1,5]-naphthyridin-2-yl)cyclopropyl)-benzamide] | 24.4
CC(C)(NC(=O)c1ccc(F)cc1)c1ccc2c(n1)C1CC1CN2 (stereo not shown) [Example 54, 4-fluoro-N-(2-(6,6a,7,7a-tetra-hydro-5H-cyclopropa[c][1,5]-naphthyridin-2-yl)propan-2-yl)-benzamide] | 4900
CC(C)(C)OC(=O)N1CC2CC2c2nc(C3(NC(=O)c4ccc(F)cc4)CC3)ccc21 (stereo not shown) [Example 10, tert-butyl 2-(1-(4-fluorobenzamido)cyclopropyl)-6,6a,7,7a-tetrahydro-5H-cyclopropa[c][1,5]naphthyridine-5-carboxylate] | 96.7
O=C(C1CC1)N1CC2CC2c2cc(C3(C(=O)Nc4ccc(F)cc4)CCC3)ccc21 (single isomer, unassigned) [Example 3, 1-(3-(cyclopropanecarbonyl)-1a,2,3,7b-tetrahydro-1H-cyclopropa[c]quinolin-6-yl)-N-(4-fluorophenyl)cyclobutanecarboxamide] | 44
C[C@@H](NC(=O)c1ccc(F)cc1)c1ccc2c(n1)[C@H]1C[C@H]1CN2C(=O)OC1CC1 [Example 28, cyclopropyl (6aR,7aS)-2-((R)-1-(4-fluorobenzamido)-ethyl)-6,6a,7,7a-tetrahydro-5H-cyclopropa[c][1,5]-naphthyridine-5-carboxylate] | 29.3
Cc1nccc(N2c3ccc(C4(NC(=O)c5ccc(F)cc5)CC4)nc3C3CC2C3C)n1 (stereo not shown) [Example 48, 4-fluoro-N-(1-(3-methyl-1-(2-methylpyrimidin-4-yl)-1,2,3,4-tetrahydro-2,4-methano-1,5-naphthyridin-6-yl)cyclopropyl)benzamide] | 76.3
O=C(NC1(c2ccc3c(n2)C2CC2CN3)CC1)c1ccc(F)cc1 (stereo not shown) [Example 11, 4-fluoro-N-(1-(6,6a,7,7a-tetrahydro-5H-cyclopropa[c][1,5]naphthyridin-2-yl)cyclopropyl)benzamide] | 2300
4-fluoro-N-(2-((6aS,7aR)-5-(2-methylpyrimidin-4-yl)-6,6a,7,7a-tetrahydro-5H-cyclopropa[c][1,5]naphthyridin-2-yl)propan-2-yl)benzamide [Example 31] | 80.6
CC(C)(C)OC(=O)N1C[C@@H]2C[C@@H]2c2nc(C3(NC(=O)c4ccc(F)cc4)CC3)ccc21 [Example 52, tert-butyl (6aR,7aS)-2-(1-(4-fluorobenzamido)cyclopropyl)-6,6a,7,7a-tetrahydro-5H-cyclo-propa[c][1,5]naphthyridine-5-carboxylate] | 96.6

Molecules with a lower IC50, results first:

IC50 [nM] | Molecule
15.4 | C[C@H](NC(=O)c1ccc(F)cc1)c1ccc2c(n1)[C@H]1C[C@H]1CN2C(=O)OC1CC1 [Example 25, cyclopropyl (6aR,7aS)-2-((S)-1-(4-fluorobenzamido)-ethyl)-6,6a,7,7a-tetrahydro-5H-cyclopropa[c][1,5]-naphthyridine-5-carboxylate]
4.71 | Cc1nccc(N2c3ccc(C4(NC(=O)c5ccc(F)cc5)CC4)cc3CC3CCC32)n1 (stereo not shown) [Example 5, 4-fluoro-N-(1-(3-(2-methylpyrimidin-4-yl)-1,2,2a,3,8,8a-hexahydrocyclobuta[b]quinolin-6-yl)cyclopropyl)benzamide]
2.83 | Cc1nccc(N2C[C@@H]3C[C@@H]3c3nc([C@@]4(NC(=O)c5ccc(F)cc5)C[C@@H]4C)ccc32)n1 [Example 40, 4-fluoro-N-((1R,2S)-2-methyl-1-((6aR,7aS)-5-(2-methyl-pyrimidin-4-yl)-6,6a,7,7a-tetra-hydro-5H-cyclopropa[c][1,5]-naphthyridin-2-yl)cyclopropyl)-benzamide]
1.67 | Cc1nccc(N2CC3CC3c3cc(C4(NC(=O)c5ccc(F)cc5)CC4)ccc32)n1 [Example 1, 4-fluoro-N-(1-((1aR,7bS)-3-(2-methylpyrimidin-4-yl)-1a,2,3,7b-tetrahydro-1H-cyclopropa[c]quinolin-6-yl)cyclopropyl)benzamide]
1.91 | Cc1nccc(N2C[C@@H]3C[C@@H]3c3nc(C4(NC(=O)c5ccc(F)cc5)CC4)ccc32)n1 (stereo in doubt) [Example 12, 4-fluoro-N-(1-(5-(2-methylpyrimidin-4-yl)-6,6a,7,7a-tetrahydro-5H-cyclopropa[c][1,5]naphthyridin-2-yl)cyclopropyl)benzamide]
20.4 | O=C(NC1(c2ccc3c(n2)C2CC(C2)N3C(=O)OCc2ccccc2)CC1)c1ccc(F)cc1 [Example 49, benzyl 6-(1-(4-fluorobenzamido)cyclopropyl)-3,4-dihydro-2,4-methano-1,5-naphthyridine-1(2H)-carboxylate]
20.9 | CC(NC(=O)c1ccc(F)cc1)c1ccc2c(n1)C1CC1CN2C(=O)OC(C)(C)C (stereo not shown) [Example 24, tert-butyl 2-(1-(4-fluorobenzamido)ethyl)-6,6a,7,7a-tetrahydro-5H-cyclopropa[c][1,5]naphthyridine-5-carboxylate]
9.02 | COC(=O)c1nccc(N2CC3CC3c3nc(C4(NC(=O)c5ccc(F)cc5)CC4)ccc32)n1 (stereo not shown) [Example 17, methyl 4-(2-(1-(4-fluorobenzamido)cyclopropyl)-6,6a,7,7a-tetrahydro-5H-cyclopropa[c][1,5]naphthyridin-5-yl)pyrimidine-2-carboxylate]
17 | O=C(NC1(c2ccc3c(n2)[C@@H]2C[C@@H]2CN3C(=O)OC2CCOCC2)CC1)c1ccc(F)cc1 [Example 23, tetrahydro-2H-pyran-4-yl (6aS,7aR)-2-(1-(4-fluoro-benzamido)cyclopropyl)-6,6a,7,7a-tetrahydro-5H-cyclopropa[c][1,5]-naphthyridine-5-carboxylate]
3.27 | Cc1nccc(N2C[C@H]3C[C@H]3c3nc([C@@]4(NC(=O)c5ccc(F)cc5)C[C@H]4C)ccc32)n1 [Example 43, 4-fluoro-N-((1R,2R)-2-methyl-1-((6aS,7aR)-5-(2-methyl-pyrimidin-4-yl)-6,6a,7,7a-tetra-hydro-5H-cyclopropa[c][1,5]-naphthyridin-2-yl)cyclopropyl)-benzamide]
2.36 | Cc1nccc(N2C[C@@H]3C[C@@H]3c3nc([C@@]4(NC(=O)c5ccc(F)cc5)C[C@H]4C)ccc32)n1 [Example 41, 4-fluoro-N-((1R,2R)-2-methyl-1-((6aR,7aS)-5-(2-methyl-pyrimidin-4-yl)-6,6a,7,7a-tetra-hydro-5H-cyclopropa[c][1,5]-naphthyridin-2-yl)cyclopropyl)-benzamide]
3.17 | Cc1nccc(N2C[C@@H]3C[C@@H]3c3nc([C@]4(NC(=O)c5ccc(F)cc5)C[C@@H]4C)ccc32)n1 [Example 42, 4-fluoro-N-((1S,2S)-2-methyl-1-((6aR,7aS)-5-(2-methyl-pyrimidin-4-yl)-6,6a,7,7a-tetra-hydro-5H-cyclopropa[c][1,5]-naphthyridin-2-yl)cyclopropyl)-benzamide]
3.39 | Cc1nccc(N2C[C@H]3C[C@H]3c3nc([C@@]4(NC(=O)c5ccc(F)cc5)C[C@@H]4C)ccc32)n1 [Example 45, 4-fluoro-N-((1R,2S)-2-methyl-1-((6aS,7aR)-5-(2-methyl-pyrimidin-4-yl)-6,6a,7,7a-tetra-hydro-5H-cyclopropa[c][1,5]-naphthyridin-2-yl)cyclopropyl)-benzamide]
